Experimental data as given in patent publication EP2144607B1, “COMPOSITIONS FOR CONTRIBUTING TO THE TREATMENT OF CANCERS” (Spectrum Pharmaceuticals, Inc., priority 2007, dated 2008).

Test system: SK-OV3 cells
Test: preclinical efficacy study on the human ovarian tumor model in mice (tumor volume)
Assay type: in vivo
Details: via tail vein once every three days, 4 doses, measured every third day through the 22nd day
Description: A preclinical efficacy study was conducted on the human ovarian tumor model in mice. The tumor cells used were SK-OV3 cells purchased from ATCC. The mice were 4-6 week old Athymic (nu+/nu+) female mice. The IRL-1620 was intravenously-infused slowly (over 30 seconds).
A solid tumor was induced in each animal using 3 million viable SK-OV3 cells suspended in 200 µl of PBS per animal. After 10 days, when established tumors of 100 mm^3 in diameter were detectable, the mice randomly were divided into six groups of 6 animals per group with each group receiving different treatments. The treatment regimens were administered via the tail vein every third day for a total of 4 doses. […]
The effect of these treatments on the tumor size was measured using a digital caliper for a total of 12 days after drug administration. The mice were monitored and weighed on every third day. […] Progression, stasis, partial regression or complete regression of tumor growth were measured by tumor load measurements with calipers and was calculated using the following formula: (3.14/6) x larger diameter x smaller diameter.

SMILES | tumor volume (Figure 1, cisplatin 2.5 mg/kg with saline or IRL-1620 3 nmol/kg) | tumor volume (Figure 3, cyclophosphamide 75 mg/kg with saline or IRL-1620 3 nmol/kg)
N.N.[Cl][Pt][Cl] [saline/cisplatin, cisplatin] | significant reduction in tumor volume | –
O=P1(N(CCCl)CCCl)NCCCO1 (centres unmarked) [saline/cyclophosphamide, cyclophosphamide] | – | significant reduction in tumor volume
